Target: T1, PTP1B (Homo sapiens, UniProt P18031)
T1 sequence (P18031 1-435): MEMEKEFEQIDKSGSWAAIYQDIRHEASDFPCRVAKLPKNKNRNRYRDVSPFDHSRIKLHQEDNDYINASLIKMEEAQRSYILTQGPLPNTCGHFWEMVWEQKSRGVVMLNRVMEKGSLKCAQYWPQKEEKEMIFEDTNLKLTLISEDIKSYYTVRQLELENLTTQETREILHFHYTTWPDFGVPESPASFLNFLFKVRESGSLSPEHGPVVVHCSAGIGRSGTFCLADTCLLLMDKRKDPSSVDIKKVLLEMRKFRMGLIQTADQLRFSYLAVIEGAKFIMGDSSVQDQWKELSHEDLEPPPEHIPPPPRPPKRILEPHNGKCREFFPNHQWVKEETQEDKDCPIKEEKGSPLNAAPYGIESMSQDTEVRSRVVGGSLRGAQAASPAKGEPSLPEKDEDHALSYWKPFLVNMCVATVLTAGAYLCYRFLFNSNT
Test: Time-dependent IC50 determination, PTP1B (10 min preincubation, pNPP)
Assay type: biochemical
Method: During active compound characterization, other common PTPs, including SHP1. PTP1B, and LYP, were counter-screened. Compounds were incubated for 10 minutes with the corresponding PTP (4 μM) before being diluted 50-fold into a solution containing excess substrate para-nitrophenyl phosphate (10 mM) to monitor the remaining activity. […] This was not expected, given their high sequence and structural homology. […] While unexpected, the lower sequence homology provides a rationale for the observed selectivity.
Inhibitors were evaluated for their ability to inhibit the reaction catalyzed by SHP2 using para-nitrophenyl phosphate (pNPP) as a substrate at pH 7 and 25° C. The reaction was started in a clear flat-bottom 96-well plate (Corning Costar Assay Plate #9017) by the addition of 25 μL of 4 μM PTP in DMG buffer to 25 μl of 2× inhibitor (final concentrations=2 μM PTP, 100-0 μM inhibitor). Reactions were incubated for 1 or 10 minutes before transferring 4 μL into 196 μL of 10.1 mM pNPP in DMG buffer (final concentration=40 nM PTP, 10 mM pNPP). These wells were then allowed to react for 10, 45, or 3 minutes for SHP1 and SHP2, LYP, PTP1B respectively before quenching with 50 μL of 5 M NaOH. Plates were then read for absorbance at 405 nm using a CLARIOstar^Plus plate reader (BMG Labetch). […]

IC50 (PTP1B, 10 minutes preincubation, curve not completed (solubility), extrapolated, read-out: 10 Minute IC50): 677 µM
Fold-Selective (10 Minutes) (SHP2 over PTP1B): 44.56
Compound: C=C1C(=O)[C@@]2(C(=O)N3CCN(c4ccc(I)cc4)CC3)CC(=O)C[C@@H]1C2 [Compound 37]

Reference: patent publication US20260327239A1, “COMPOUNDS FOR COVALENT INHIBITION OF SHP2” (Purdue Research Foundation, priority 2023, published 2026)
